In ChEMBL document CHEMBL3885861, “Open TG-GATES”:

Species on record: Rattus norvegicus
Test: Open TG-GATES - Regimen: Single
Format: toxicity, organism-based, Sprague-Dawley
Design: regimen Single, gender Male, age 6 weeks
Settings: in vivo, iv, 120 mg/kg, route intravenous injection, dose level High; for APTT / Bas / Eos / Fbg / Hb / Ht / Lym / MCH / MCHC / MCV / Mono / Neu / PT / Plat / RBC / Ret / WBC: tissue Blood; for KIDNEY_L / KIDNEY_R / KIDNEY_TOTAL: tissue Kidney; for LIVER: tissue Liver; for A/G / ALP / ALT / AST / BUN / CRE / Ca / Cl / DBIL / GLC / IP / K / LDH / Na / PL / RALB / TBIL / TC / TG / TP / gamma-GTP: tissue Plasma

SMILES: CN(C)c1ncnc2c1ncn2[C@@H]1O[C@H](CO)[C@@H](N)[C@H]1O [PUROMYCIN AMINONUCLEOSIDE]
- TERMINAL_BW (3 h): 210.5 g
- APTT (3 h): 22.4 s
- Bas (3 h): 0%
- Eos (3 h): 0.8%
- Fbg (3 h): 278.6 mg/dL
- Hb (3 h): 12.8 g/dL
- Ht (3 h): 37.9%
- Lym (3 h): 44.4%
- MCH (3 h): 21.1 pg
- MCHC (3 h): 33.8%
- MCV (3 h): 62.5 fL
- Mono (3 h): 3%
- Neu (3 h): 51.2%
- PT (3 h): 16.3 s
- Plat (3 h): 116 x10_4/uL
- RBC (3 h): 607 x10_4/ul
- Ret (3 h): 6.7%
- WBC (3 h): 133.5 x10_2/uL
- KIDNEY_L (3 h): 1 g
- KIDNEY_R (3 h): 0.9 g
- KIDNEY_TOTAL (3 h): 1.9 g
- LIVER (3 h): 9 g
- A/G (3 h): 1.3
- ALP (3 h): 1280.6 IU/L
- ALT (3 h): 43.4 IU/L
- AST (3 h): 82.8 IU/L
- BUN (3 h): 13.8 mg/dL
- CRE (3 h): 0.2 mg/dL
- Ca (3 h): 11 mg/dL
- Cl (3 h): 104.8 meq/L
- DBIL (3 h): 0.002 mg/dL
- GLC (3 h): 163.2 mg/dL
- IP (3 h): 9.3 mg/dL
- K (3 h): 4.1 meq/L
- LDH (3 h): 162.8 IU/L
- Na (3 h): 141.4 meq/L
- PL (3 h): 140.4 mg/dL
- RALB (3 h): 3 g/dL
- TBIL (3 h): 0.032 mg/dL
- TC (3 h): 69 mg/dL
- TG (3 h): 88.2 mg/dL
- TP (3 h): 5.3 g/dL
- gamma-GTP (3 h): 1.4 IU/L
- TERMINAL_BW (6 h): 213.9 g
- APTT (6 h): 22.1 s
- Bas (6 h): 0%
- Eos (6 h): 0.6%
- Fbg (6 h): 304.8 mg/dL
- Hb (6 h): 12.6 g/dL
- Ht (6 h): 37.5%
- Lym (6 h): 43.2%
- MCH (6 h): 20.7 pg
- MCHC (6 h): 33.6%
- MCV (6 h): 61.6 fL
- Mono (6 h): 3.6%
- Neu (6 h): 51.2%
- PT (6 h): 15.8 s
- Plat (6 h): 121.6 x10_4/uL
- RBC (6 h): 608.8 x10_4/ul
- Ret (6 h): 6.9%
- WBC (6 h): 133.1 x10_2/uL
- KIDNEY_L (6 h): 0.9 g
- KIDNEY_R (6 h): 1 g
- KIDNEY_TOTAL (6 h): 1.9 g
- LIVER (6 h): 9.3 g
- A/G (6 h): 1.3
- ALP (6 h): 1220.8 IU/L
- ALT (6 h): 40.8 IU/L
- AST (6 h): 75 IU/L
- BUN (6 h): 11.6 mg/dL
- CRE (6 h): 0.1 mg/dL
- Ca (6 h): 11.3 mg/dL
- Cl (6 h): 103.6 meq/L
- DBIL (6 h): 0.004 mg/dL
- GLC (6 h): 165.2 mg/dL
- IP (6 h): 10.4 mg/dL
- K (6 h): 4.3 meq/L
- LDH (6 h): 135.8 IU/L
- Na (6 h): 140 meq/L
- PL (6 h): 151 mg/dL
- RALB (6 h): 3 g/dL
- TBIL (6 h): 0.042 mg/dL
- TC (6 h): 79.8 mg/dL
- TG (6 h): 60.4 mg/dL
- TP (6 h): 5.4 g/dL
- gamma-GTP (6 h): 1.6 IU/L
- TERMINAL_BW (9 h): 213.9 g
- APTT (9 h): 22.8 s
- Bas (9 h): 0%
- Eos (9 h): 1%
- Fbg (9 h): 298.6 mg/dL
- Hb (9 h): 12.8 g/dL
- Ht (9 h): 38.3%
- Lym (9 h): 56%
- MCH (9 h): 20.9 pg
- MCHC (9 h): 33.5%
- MCV (9 h): 62.5 fL
- Mono (9 h): 2.8%
- Neu (9 h): 39.6%
- PT (9 h): 15.4 s
- Plat (9 h): 116 x10_4/uL
- RBC (9 h): 614 x10_4/ul
- Ret (9 h): 6.9%
- WBC (9 h): 117.1 x10_2/uL
- KIDNEY_L (9 h): 1 g
- KIDNEY_R (9 h): 1 g
- KIDNEY_TOTAL (9 h): 2 g
- LIVER (9 h): 8.2 g
- A/G (9 h): 1.2
- ALP (9 h): 1175.4 IU/L
- ALT (9 h): 42 IU/L
- AST (9 h): 79.6 IU/L
- BUN (9 h): 11.8 mg/dL
- CRE (9 h): 0.1 mg/dL
- Ca (9 h): 10.8 mg/dL
- Cl (9 h): 103.4 meq/L
- DBIL (9 h): 0 mg/dL
- GLC (9 h): 176.4 mg/dL
- IP (9 h): 10.3 mg/dL
- K (9 h): 4.2 meq/L
- LDH (9 h): 129.2 IU/L
- Na (9 h): 139.6 meq/L
- PL (9 h): 136.6 mg/dL
- RALB (9 h): 3 g/dL
- TBIL (9 h): 0.03 mg/dL
- TC (9 h): 75.4 mg/dL
- TG (9 h): 56.6 mg/dL
- TP (9 h): 5.4 g/dL
- gamma-GTP (9 h): 1.6 IU/L
- TERMINAL_BW (24 h): 212.8 g
- APTT (24 h): 20.5 s
- Bas (24 h): 0%
- Eos (24 h): 0.6%
- Fbg (24 h): 343 mg/dL
- Hb (24 h): 12.9 g/dL
- Ht (24 h): 37.4%
- Lym (24 h): 85%
- MCH (24 h): 20.5 pg
- MCHC (24 h): 34.6%
- MCV (24 h): 59.4 fL
- Mono (24 h): 3.8%
- Neu (24 h): 9.6%
- PT (24 h): 15.7 s
- Plat (24 h): 121.3 x10_4/uL
- RBC (24 h): 629 x10_4/ul
- Ret (24 h): 4.1%
- WBC (24 h): 73.2 x10_2/uL
- KIDNEY_L (24 h): 0.9 g
- KIDNEY_R (24 h): 0.9 g
- KIDNEY_TOTAL (24 h): 1.8 g
- LIVER (24 h): 9.4 g
- A/G (24 h): 1.3
- ALP (24 h): 1135 IU/L
- ALT (24 h): 39.8 IU/L
- AST (24 h): 70 IU/L
- BUN (24 h): 27.2 mg/dL
- CRE (24 h): 0.2 mg/dL
- Ca (24 h): 11.4 mg/dL
- Cl (24 h): 103.4 meq/L
- DBIL (24 h): 0 mg/dL
- GLC (24 h): 171.8 mg/dL
- IP (24 h): 10.5 mg/dL
- K (24 h): 4.8 meq/L
- LDH (24 h): 142.8 IU/L
- Na (24 h): 141 meq/L
- PL (24 h): 142.4 mg/dL
- RALB (24 h): 3.2 g/dL
- TBIL (24 h): 0.028 mg/dL
- TC (24 h): 79.4 mg/dL
- TG (24 h): 59.2 mg/dL
- TP (24 h): 5.8 g/dL
- gamma-GTP (24 h): 1.4 IU/L
